This passage reports IC50 results from patent US20130150325A1, “3-(Fluorovinyl)pyrazoles and their use” (BAYER INTELLECTUAL PROPERTY GMBH, priority 2011, published 2013).

For this assay, the system named is HCT 116 cells transfected with a luciferase reporter under the control of an HIF-responsive sequence. The assay can be described thus: HIF-luciferase assay. Format: cell-based. The conditions noted are these: Homo sapiens; HCT 116 HIF-luciferase reporter cells, hypoxia chamber (1% O2), 24 h; in some cases means of up to four individual determinations. The protocol: HCT 116 cells were transfected in a stable manner with a plasmid which contained a luciferase reporter under the control of an HIF-responsive sequence. These cells were sown in microtitre plates [20 000 cells/cavity in RPMI 1640 medium with 10% foetal calf serum (FCS) and 100 μg/ml of hygromycin]. Incubation was carried out overnight under standard conditions (5% CO2, 21% O2, 37° C., moistened). The following morning the cells were incubated with various concentrations of the test substances (0-10 μmol/l) in a hypoxia chamber (1% O2). After 24 h, Bright Glo reagent (Promega, Wisconsin, USA) was added in accordance with the manufacturer's instructions, and after 5 min the luminescence was measured. Cells which were incubated under normoxia served as background controls.
The IC50 values from this assay for representative working examples are listed in the following table (in same cases as means of up to four individual determinations): […]

Broadly, the IC50 is the concentration at which inhibition is half-maximal. Read a high IC50 as lower potency. Turning to `Cc1ccc(Cn2nc(/C(F)=C/c3ccc(OC(F)(F)F)cc3)cc2C)cc1` [Example 2, 3-{(Z)-1-Fluoro-2-[4-(trifluoromethoxy)phenyl]vinyl}-5-methyl-1-(4-methylbenzyl)-1H-pyrazole], the IC50 came out at 30 nM.

`Cc1ccc(Cn2nc(/C(F)=C/c3ccc(N4CC(C)OC(C)C4)nc3)cc2C)cc1` (stereo not shown) [Example 4, 4-(5-{(Z)-2-Fluoro-2-[5-methyl-1-(4-methylbenzyl)-1H-pyrazol-3-yl]vinyl}pyridin-2-yl)-2,6-dimethylmorpholine]: the IC50 was determined as 2 nM.

Consider `Cc1cc(/C(F)=C/c2ccc(C(C)(C)C(F)(F)F)cc2)nn1Cc1cccc(Br)c1` [Example 7, 1-(3-Bromobenzyl)-3-{(Z)-1-fluoro-2-[4-(1,1,1-trifluoro-2-methylpropan-2-yl)phenyl]vinyl}-5-methyl-1H-pyrazole], for which the IC50 was 40 nM.

In turn, `Cc1cc(/C(F)=C/c2ccc(OC(F)(F)F)cc2)nn1Cc1cccc(N2CCC(C#N)CC2)c1` [Example 9, 1-{3-[(3-{(Z)-1-Fluoro-2-[4-(trifluoromethoxy)phenyl]vinyl}-5-methyl-1H-pyrazol-1-yl)-methyl]phenyl}piperidine-4-carbonitrile] had a 50% inhibitory concentration (IC50) of 0.4 nM.

`Cc1cc(/C(F)=C/c2ccc(C(C)(C)C(F)(F)F)cc2)nn1Cc1cccc(N2CCC(C#N)CC2)c1` [Example 10, 1-{3-[(3-{(Z)-1-Fluoro-2-[4-(1,1,1-trifluoro-2-methylpropan-2-yl)phenyl]vinyl}-5-methyl-1H-pyrazol-1-yl)methyl]phenyl}piperidine-4-carbonitrite]: the IC50 is 0.4 nM.

In turn, `Cc1cc(/C(F)=C/c2ccc(C3(C(F)(F)F)CC3)cc2)nn1Cc1cccc(N2CCC(C#N)CC2)c1` [Example 11, 1-[3-({3-[(Z)-1-Fluoro-2-{4-[1-(trifluoromethyl)cyclopropyl]phenyl}vinyl]-5-methyl-1H-pyrazol-1-yl}methyl)phenyl]piperidine-4-carbonitrile] showed an IC50 of 0.2 nM.

On to `Cc1cc(/C(F)=C/c2ccc(OC(F)(F)F)cc2)nn1Cc1cccc(N2CCC(O)CC2)c1` [Example 12, 1-{3-[(3-{(Z)-1-Fluoro-2-[4-(trifluoromethoxy)phenyl]vinyl}-5-methyl-1H-pyrazol-1-yl)methyl]phenyl}piperidin-4-ol], for which inhibition was half-maximal at 0.3 nM (IC50).

The compound `Cc1cc(/C(F)=C/c2ccc(C(C)(C)C(F)(F)F)cc2)nn1Cc1cccc(N2CCC(O)CC2)c1` [Example 13, 1-{3-[(3-{(Z)-1-Fluoro-2-[4-(1,1,1-trifluoro-2-methylpropan-2-yl)phenyl]vinyl}-5-methyl-1H-pyrazol-1-yl)methyl]phenyl}piperidin-4-ol] returned an IC50 of 0.5 nM.

The compound `Cc1cc(/C(F)=C/c2ccc(C3(C(F)(F)F)CC3)cc2)nn1Cc1cccc(N2CCC(O)CC2)c1` [Example 14, 1-[3-({3-[(Z)-1-Fluoro-2-{4-[1-(trifluoromethyl)cyclopropyl]phenyl}vinyl]-5-methyl-1H-pyrazol-1-yl}methyl)phenyl]piperidin-4-ol] gave an IC50 of 0.2 nM.

Turning to `Cc1cc(/C(F)=C/c2ccc(OC(F)(F)F)cc2)nn1Cc1cccc(N2CC(O)C2)c1` [Example 15, 1-{3-[(3-{(Z)-1-Fluoro-2-[4-(trifluoromethoxy)phenyl]vinyl}-5-methyl-1H-pyrazol-1-yl)methyl]phenyl}azetidin-3-ol], inhibition was half-maximal at 2 nM (IC50).

With `Cc1cc(/C(F)=C/c2ccc(C(C)(C)C(F)(F)F)cc2)nn1Cc1cccc(N2CC(O)C2)c1` [Example 16, 1-{3-[(3-{(Z)-1-Fluoro-2-[4-(1,1,1-trifluoro-2-methylpropan-2-yl)phenyl]vinyl}-5-methyl-1H-pyrazol-1-yl)methyl]phenyl}azetidin-3-ol], the IC50 was found to be 0.5 nM.

Turning to `Cc1cc(/C(F)=C/c2ccc(C3(C(F)(F)F)CC3)cc2)nn1Cc1cccc(N2CC(O)C2)c1` [Example 17, 1-[3-({3-[(Z)-1-Fluoro-2-{4-[1-(trifluoromethyl)cyclopropyl]phenyl}vinyl]-5-methyl-1H-pyrazol-1-yl}methyl)phenyl]azetidin-3-ol], inhibition was half-maximal at 1 nM (IC50).

In turn, `COC(=O)c1cccc(Cn2nc(/C(F)=C/c3ccc(OC(F)(F)F)cc3)cc2C)c1` [Example 18, Methyl 3-[(3-{(Z)-1-fluoro-2-[4-(trifluoromethoxy)phenyl]vinyl}-5-methyl-1H-pyrazol-1-yl)methyl]benzoate] registered an IC50 of 20 nM.

The compound `COC(=O)c1cccc(Cn2nc(/C(F)=C/c3ccc([Si](C)(C)C)cc3)cc2C)c1` [Example 23, Methyl 3-[(3-{(Z)-1-fluoro-2-[4-(trimethylsilyl)phenyl]vinyl}-5-methyl-1H-pyrazol-1-yl)methyl]benzoate] showed a 50% inhibitory concentration (IC50) of 1 nM.

`Cc1cc(/C(F)=C/c2ccc(OC(F)(F)F)cc2)nn1Cc1cccc(C(=O)N(C)C)c1` [Example 25, 3-[(3-{(Z)-1-Fluoro-2-[4-(trifluoromethoxy)phenyl]vinyl}-5-methyl-1H-pyrazol-1-yl)methyl]-N,N-dimethylbenzamide]: half-maximal inhibition (IC50) required 6 nM.

The compound `Cc1cc(/C(F)=C/c2ccc(OC(F)(F)F)cc2)nn1Cc1cccc(C(=O)N2CCCC2)c1` [Example 26, {3-[(3-{(Z)-1-Fluoro-2-[4-(trifluoromethoxy)phenyl]vinyl}-5-methyl-1H-pyrazol-1-yl)-methyl]phenyl}(pyrrolidin-1-yl)methanone] came in with an IC50 of 1.5 nM.

In turn, `Cc1cc(/C(F)=C/c2ccc(SC(F)(F)F)cc2)nn1Cc1cccc(C(=O)N2CCCC2)c1` [Example 27, [3-({3-[(Z)-1-Fluoro-2-{4-[(trifluoromethyl)sulphanyl]phenyl}vinyl]-5-methyl-1H-pyrazol-1-yl}methyl)phenyl](pyrrolidin-1-yl)methanone] showed an IC50 of 4 nM.

`Cc1cc(/C(F)=C/c2ccc(C(C)(C)C(F)(F)F)cc2)nn1Cc1cccc(C(=O)N2CCCC2)c1` [Example 28, {3-[(3-{(Z)-1-Fluoro-2-[4-(1,1,1-trifluoro-2-methylpropan-2-yl)phenyl]vinyl}-5-methyl-1H-pyrazol-1-yl)methyl]phenyl}(pyrrolidin-1-yl)methanone] returned an IC50 of 5 nM.

Turning to `Cc1cc(/C(F)=C/c2ccc(C3(C(F)(F)F)CC3)cc2)nn1Cc1cccc(C(=O)N2CCCC2)c1` [Example 29, [3-({3-[(Z)-1-Fluoro-2-{4-[1-(trifluoromethyl)cyclopropyl]phenyl}vinyl]-5-methyl-1H-pyrazol-1-yl}methyl)phenyl](pyrrolidin-1-yl)methanone], the IC50 worked out at 5 nM.

The compound `Cc1cc(/C(F)=C/c2ccc(C(F)(F)F)cc2)nn1Cc1cccc(C(=O)N2CCCC2)c1` [Example 30, {3-[(3-{(Z)-1-Fluoro-2-[4-(trifluoromethyl)phenyl]vinyl}-5-methyl-1H-pyrazol-1-yl)methyl]-phenyl}(pyrrolidin-1-yl)methanone] displayed an IC50 of 6 nM.

The compound `Cc1cc(/C(F)=C/c2ccc(OC(F)(F)F)cc2)nn1Cc1cccc(C(=O)N2CCOCC2)c1` [Example 31, {3-[(3-{(Z)-1-Fluoro-2-[4-(trifluoromethoxy)phenyl]vinyl}-5-methyl-1H-pyrazol-1-yl)methyl]-phenyl}(morpholin-4-yl)methanone] showed an IC50 of 3 nM.

For the compound `Cc1cc(/C(F)=C/c2ccc(OC(F)(F)F)cc2)nn1Cc1cccc(C(=O)N2CCC(O)CC2)c1` [Example 32, {3-[(3-{(Z)-1-Fluoro-2-[4-(trifluoromethoxy)phenyl]vinyl}-5-methyl-1H-pyrazol-1-yl)-methyl]phenyl}(4-hydroxypiperidin-1-yl)methanone], the IC50 came to 4 nM.
